Reference: publication PMC8608343 (PLoS ONE, 2021)
Values after ≈ are worked out from the molar mass of the structure shown.

How the values were obtained:
[1] = test system: Leishmania donovani amastigotes; test: ROS generation in treated amastigotes (H2DCFDA); type: cell-based; conditions: 100, 50 or 25 μM, 24 hrs
Description: (§1) The degree of reactive oxygen species (ROS) production in treated promastigote and amastigote cells of L. donovani were assessed using the H2DCFDA (2’,7’-dichlorodihydrofluorescein diacetate) rich fluorescent dye (MAK145 Sigma-Aldrich) ROS detection kit. […] Amoxicillin was used as a positive control for pro-oxidative generation while Vitamin C was used as a positive control for anti-oxidative potential. The treated and untreated cells were then suspended in PBS, washed, and resuspended in PBS, then incubated with the ROS detection master mix for 1 hr as instructed by the protocol. The cells were analyzed for intracellular ROS generation by measuring the fluorescence intensity which is proportional to the ROS production level using the Varioskan Lux Elisa microplate reader (Thermo Fischer Scientific, USA) at a wavelength of 605 nm.

[2] = test system: Leishmania donovani promastigotes; test: ROS generation in treated promastigotes (H2DCFDA); type: cell-based; conditions: 100, 50 or 25 μM, 72 hrs
Description: as §1

[3] = test system: Leishmania donovani promastigotes; test: Antileishmanial activity against promastigotes (MTT assay); type: cell-based; conditions: for IC50 (μg/ml) ±SD promastigote / IC50: 96 hrs at 25° C, MTT, mean of three experiments; for Therapeutic Index (TC50/IC50) promastigotes: TC50 RAW / IC50 promastigote; for IC50: Leishmania donovani, read-out: IC50 (μg/ml) ±SD promastigote
Excerpt: Amphotericin B was used as a positive control. The 3-(4,5-Dimethylthiazol-2-yl)-2,5-diphenyltetrazolium bromide (MTT) assay was used to determine the parasite viability as previously described.

[4] = test system: Leishmania donovani amastigotes in RAW macrophage cells; test: Antileishmanial activity against macrophage-amastigotes (MTT assay); type: cell-based; conditions: for Therapeutic Index (TC50/IC50) amastigotes: TC50 RAW / IC50 amastigote; for IC50 (μg/ml) ±SD amastigote / IC50: amastigotes in RAW macrophages, MTT; for IC50: Leishmania donovani, Macrophage, read-out: IC50 (μg/ml) ±SD amastigote
Description: The RAW macrophage cells were infected with promastigotes at a density of 1:10 ratio, respectively for 12 hrs and the non-phagocytosed promastigotes and media removed by aspiration. The RAW macrophages cells containing the internalized amastigote cells were treated with the compounds to test for their growth inhibitory potentials as previously described. The 3-(4,5-Dimethylthiazol-2-yl)-2,5-diphenyltetrazolium bromide (MTT) assay was also used to determine the parasite viability. […] was measured with a Varioskan Lux Elisa plate reader at a wavelength of 570 nm.

[5] = test system: RAW 264.7 murine macrophage cell line; test: Cytotoxicity against mammalian RAW macrophage cell line (MTT assay); conditions: 48 hrs, 50% cytotoxic concentration
Excerpt: Here, amphotericin B was used as a positive control and the negative control was untreated RAW cell line.

O+ human red blood cells = test: Haemolytic potential; conditions: 2% haematocrit, up to 100 μg/ml
Description: The compounds were tested against the O^+ human red blood cells (obtained from the Malaria laboratory of WACCBIP) at a density of 2% haematocrit for their ability to lyse erythrocytes upon incubation. Here, a concentration of up to 100 μg/ml of compounds was used, and the 50% haemolytic concentration (HC50) of the compounds were determined by analysis of dose-response curves as described.

[6] = test system: Leishmania donovani promastigotes; test: Morphological and mitochondrion effects by fluorescence microscopy (DAPI, MitoTracker); type: cell-based; conditions: for morphological / mitochondrial changes after 72 hrs: 2x IC50, 72 hrs
Description: Their mitochondrial integrity were analyzed using a slightly modified DAPI and Mitotracker dye protocol as described by Amisigo and colleagues.

[7] = test system: Leishmania donovani promastigotes; test: Growth kinetics and cytocidal/cytostatic (growth reversibility) assay; type: cell-based; conditions: 1 μg/ml, 120 hrs treatment, then 96 hrs in fresh media
Description: The compounds (at 1 μg/ml) were tested for their effects on the growth kinetic pattern against the promastigotes of L. donovani. The parasite cells (2 x 10^5 cells/ml) were incubated at 25° C in the presence of the test compounds in M199 supplemented with 10% FBS. Amphotericin B treated parasites (0–50 μg/ml) were used as the positive control while the untreated promastigotes in medium alone served as the negative control. Viable cells were counted every 24 hrs for a total of 120 hrs as indicated in previous studies.
The cytocidal/cytostatic effect of the test compounds were assessed by analyzing the treated and untreated parasites after 120 hrs of incubation. Cells were washed twice with fresh M199, resuspended in complete M199 media and incubated further for 96 hrs. The viable cells were then counted microscopically.

| SMILES | ROS generation effect in amastigotes [1] | ROS generation effect in promastigotes [2] | IC50 (μg/ml) ±SD promastigote [3] | Therapeutic Index (TC50/IC50) promastigotes [3] | Therapeutic Index (TC50/IC50) amastigotes [4] | IC50 (μg/ml) ±SD amastigote [4] | TC50 (μg/ml) ±SD RAW [5] | HC50 (O+ human red blood cells) | IC50 [3] | IC50 [4] | cells with slight enlargement of nuclear and kinetoplast DNA ([6]; 2x IC50, 24 hrs) | morphological / mitochondrial changes after 72 hrs [6] | cytocidal/cytostatic effect upon drug withdrawal [7] | morphological / mitochondrial changes after 24 hrs ([6]; 2x IC50, 24 hrs) |
| --- | --- | --- | --- | --- | --- | --- | --- | --- | --- | --- | --- | --- | --- | --- |
| CC1(C)S[C@@H]2[C@H](NC(=O)[C@H](N)c3ccc(O)cc3)C(=O)N2[C@H]1C(=O)O [Amoxicillin, reference compound] | pro-oxidative effect | pro-oxidative action |  |  |  |  |  |  |  |  |  |  |  |  |
| C[C@@H]1[C@H](O)[C@@H](C)/C=C/C=C/C=C/C=C/C=C/C=C/C=C/[C@H](O[C@@H]2O[C@H](C)[C@@H](O)[C@H](N)[C@@H]2O)C[C@@H]2O[C@](O)(C[C@@H](O)C[C@@H](O)[C@H](O)CC[C@@H](O)C[C@@H](O)CC(=O)O[C@H]1C)C[C@H](O)[C@H]2C(=O)O [Amphotericin B, reference compound] | anti-oxidative effect | anti-oxidative effect |  |  |  |  |  |  |  |  |  |  |  |  |
| O=C(Nc1ccc2c(c1)B(O)OC2)c1ccccc1C(F)(F)F [Compound A03B] | anti-oxidative effect | anti-oxidative effect | 0.44 ± 0.200 µg/mL (≈ 1.37 µM) | 0.41 | 0.90 | 0.20 ± 0.030 µg/mL (≈ 0.623 µM) | 0.18 ± 0.050 µg/mL (≈ 0.561 µM) | >100 µg/mL |  |  |  |  |  |  |
| O=C(NCc1nnc2n1CCCCC2)c1ccc(-c2ccc(F)cc2)o1 [Compound A06A] |  | anti-oxidative effect |  | 2.05 | 1.03 |  | 0.39 ± 0.05 µg/mL (≈ 1.1 µM) | >100 µg/mL | 0.19 ± 0.008 µg/mL (≈ 0.536 µM) | 0.38 ± 0.01 µg/mL (≈ 1.07 µM) | 50% | most of the few cells left lost their kinetoplast DNA |  |  |
| Clc1cccc(CO[C@H]2CCc3ccccc3[C@@H]2n2ccnn2)c1 [Compound A07E] |  |  | >6.25 µg/mL | 0.07 | 0.07 | >6.25 µg/mL | 0.41 ± 0.020 µg/mL (≈ 1.21 µM) | >100 µg/mL |  |  |  |  |  |  |
| Cc1ncc(-c2ccnc(Nc3ccc(S(C)(=O)=O)cc3)n2)n1C(C)C [Compound B03B] | anti-oxidative effect | pro-oxidative action | 0.20 ± 0.040 µg/mL (≈ 0.538 µM) | 1.25 | 0.63 | 0.40 ± 0.050 µg/mL (≈ 1.08 µM) | 0.25 ± 0.040 µg/mL (≈ 0.673 µM) | >100 µg/mL |  |  |  |  | cytocidal effect |  |
| COc1ccc(C2=NN(C3CCCCCC3)C(=O)[C@@H]3CC=CC[C@H]23)cc1OCCCCOc1ccc(-c2nn[nH]n2)cc1 [Compound C02B] | anti-oxidative effect |  | 0.15 ± 0.130 µg/mL (≈ 0.257 µM) | 2.53 | 2.92 | 0.13 ± 0.004 µg/mL (≈ 0.222 µM) | 0.38 ± 0.010 µg/mL (≈ 0.65 µM) | >100 µg/mL |  |  |  |  |  |  |
| CO[C@@H](C(=O)N1Cc2[nH]nc(NC(=O)c3ccc(N4CCN(C)CC4)cc3)c2C1)c1ccccc1 [Compound C03B] |  | pro-oxidative action | 0.62 ± 0.010 µg/mL (≈ 1.31 µM) | 0.34 |  | >6.25 µg/mL | 0.21 ± 0.010 µg/mL (≈ 0.443 µM) | >100 µg/mL |  |  |  |  |  |  |
| O=C(Nc1ccccc1-c1nc2c(C(=O)O)cccc2o1)c1ccccc1 [Compound C06D] | pro-oxidative effect | anti-oxidative effect | >6.25 µg/mL | 0.06 | 0.13 | 3.0 ± 0.001 µg/mL (≈ 8.37 µM) | 0.39 ± 0.010 µg/mL (≈ 1.09 µM) | >100 µg/mL |  |  |  |  | cytocidal effect |  |
| c1ccc(Oc2ccc(-c3cc(C4CCOCC4)n[nH]3)cc2)cc1 [Compound D02A] |  |  |  | 476.19 | 454.55 |  | >100 µg/mL | >100 µg/mL | 0.21 ± 0.01 µg/mL (≈ 0.655 µM) | 0.22 ± 0.02 µg/mL (≈ 0.687 µM) |  | degeneration of the nuclear and kinetoplast DNA continued |  | degeneration in the mitochondria integrity |
| N=C(N)c1ccc(-c2cc(-c3ccccc3)on2)cc1 [Compound E02A] |  | anti-oxidative effect |  | 344.83 | 18.73 |  | >100 µg/mL | >100 µg/mL | 0.29 ± 0.001 µg/mL (≈ 1.1 µM) | 5.34 ± 0.01 µg/mL (≈ 20.3 µM) |  | degenerate after 72 hrs |  | did not show marked morphological changes |
| CC1CCCCN1C(=O)NCCc1coc(-c2ccc(F)cc2)n1 (stereo not drawn) [Compound E05A] |  | anti-oxidative effect | 0.39 ± 0.060 µg/mL (≈ 1.18 µM) | 256.41 | 36.50 | 2.74 ± 0.100 µg/mL (≈ 8.27 µM) | >100 µg/mL | >100 µg/mL |  |  |  |  |  |  |
| CNC(=O)c1nn(C)c2c1C(C)(C)Cc1cnc(Nc3ccc(N4CCN(C)CC4)cc3)nc1-2 [Compound H02B] | pro-oxidative effect | anti-oxidative effect | 0.12 ± 0.150 µg/mL (≈ 0.261 µM) | 0.92 | 0.02 | >6.25 µg/mL | 0.11 ± 0.010 µg/mL (≈ 0.239 µM) | >100 µg/mL |  |  |  |  | cytocidal effect |  |
| CS(=O)(=O)c1ccccc1C(=O)N(Cc1ccccc1)c1ccccc1 [Compound H05A] |  | anti-oxidative effect | 0.78 ± 0.170 µg/mL (≈ 2.13 µM) | 0.19 | 0.60 | 0.25 ± 0.040 µg/mL (≈ 0.684 µM) | 0.15 ± 0.030 µg/mL (≈ 0.41 µM) | >100 µg/mL |  |  |  |  |  |  |
| CCN(CC)CCCCCCNc1cc(OC)cc2c(C)ccnc12 [MMV000063] | anti-oxidative effect |  |  |  |  |  |  |  |  |  |  |  |  |  |
| CCC(=O)Nc1ccccc1C(=O)Nc1ccccn1 [MMV202553] |  | anti-oxidative effect |  |  |  |  |  |  |  |  |  |  |  |  |
| CC(C)(C)OC(=O)N1CCN(c2cc(-c3ccc(Oc4ccccc4)cc3)n[nH]2)CC1 [MMV676057] | pro-oxidative effect | anti-oxidative effect |  |  |  |  |  |  |  |  |  |  |  |  |
| CCOc1ccc2cc(-c3nn(CC4CCN(C)CC4)c4ncnc(N)c34)ccc2c1 [MMV688854] | anti-oxidative effect |  |  |  |  |  |  |  |  |  |  |  |  |  |
| CCc1nn(C)c(C(=O)NCc2ccc(Oc3ccc(C)cc3)cc2)c1Cl [MMV688934] |  | anti-oxidative effect |  |  |  |  |  |  |  |  |  |  |  |  |
| CC(C)(C)C(O)C(Oc1ccc(-c2ccccc2)cc1)n1cncn1 (stereo not drawn) [MMV688942] |  | anti-oxidative effect |  |  |  |  |  |  |  |  |  |  |  |  |
| Nc1ncnc2c1ncn2C[C@@H](O)[C@@H](O)C(=O)O [MMV689255] | anti-oxidative effect |  |  |  |  |  |  |  |  |  |  |  |  |  |
| O=C1O[C@H]([C@@H](O)CO)C(O)=C1O [Vitamin C, reference compound] | anti-oxidative effect | anti-oxidative effect |  |  |  |  |  |  |  |  |  |  |  |  |
